# Values joined by “and” are separate entries in the source; they are usually repeats but may differ in a detail not shown here. Equal values may be shown once. “Also recorded” adds a separate entry of the source.
# How the values were obtained:
# [1] = tested on: C57B16 mice exposed to AIR; experiment: Survival after lethal abdominal irradiation (AIR), RIGS model; settings: for survival: BCN057 s.c. 150 mg/kg from 24 hrs post AIR, single dose/day up to day 8, n=25/group, vehicle/untreated died within 15 days
# Procedure: FIG. 1A. […] A 3 cm area of the mice containing the GI was irradiated (irradiation field), thus shielding the upper thorax, head and neck as well as lower and upper extremities, protecting a significant portion of the bone marrow, thus inducing predominantly RIGS. Mice exposed to AIR were treated with BCN057 (s.c.) (150 mg/kg of body weight) at 24 hrs post irradiation and continued up to day 8 (single dose/day).
# To examine the radio-mitigating role of BCN057 against RIGS, C57B16 mice were exposed to graded doses of abdominal irradiation (AIR) (14-15Gy) after shielding the thorax, head and neck, and extremities, thus protecting the bone marrow.
# Male C57B16/6J (Jackson laboratories) mice (five to six weeks old) were maintained ad libitum and all studies were performed under the guidelines and protocols of the Institutional Animal Care and Use Committee of the University of Kansas medical center.
# AIR was performed on anaesthetized mice (with a continuous flow 1.5 ml min-1 of 1.5% isoflurane in pure oxygen) using the small animal radiation research platform (SARRP, XStrahl, Surrey, UK). A 2 cm area of the mice containing the GI was irradiated (FIG. 2), thus shielding the upper thorax, head and neck as well as lower and upper extremities, protecting a significant portion of the bone marrow, thus inducing predominantly RIGS. A radiation dose of 14-15 Gy was delivered to the midline of the GI, ensuring homogeneous delivery by performing half of the total irradiation from the anterior-posterior direction and the second half from the posterior-anterior direction. The total irradiation time to deliver the intended dose was calculated with respect to dose rate, radiation field size and fractional depth dose to ensure accurate radiation dosimetry.
# [2] = tested on: intestinal crypt organoids from Lgr5/EGFP-IRES-Cre-ERT2 knock in mice; experiment: Ex vivo irradiated mouse intestinal crypt organoids; format: cell-based
# Source text: To analyze the effect of BCN057 on ISC population, an ex vivo primary intestinal culture system exposed to graded doses of irradiation was developed. Intestinal crypt isolated from Lgr5/EGFP-IRES-Cre-ERT2 knock in mice to allow the visualization of the ISCs. At a dose level of 8 Gy most of the Lgr5+ve ISCs had disappeared within 48 hrs resulting significant loss of budding crypt with changes in existing crypt morphology indicating inhibition of ISC growth and differentiation in response to radiation exposure. […] A representative microscopic image of effect of BCN057 on budding crypt having Lgr5+ve ISCs (GFP+ve cells indicated with arrow) is shown in FIG. 10.
# Small intestine from Lgr5-GFP mice, or their littermates control mice was used for crypt isolation and development of ex vivo organoid culture. The tissue was scraped for removing villi and chopped into˜5 mm pieces. Then tissue was washed with cold PBS, and incubated in dissociation buffer for 20 mins in rotor at room temperature. The tissue fragments were suspended vigorously with a 10-ml pipette in cold 0.1% BSA in PBS, yielding supernatants enriched in epithelial cells. […] The number of organoids per well was counted on microscopic images. […] Total number of crypt structures and number of budding crypts were counted and expressed as a ratio of budding crypts/total crypt structure.
structure (smiles),measurement,setting,value
"COc1ccc2cc(-c3nc4ccc(C)cn4c3NCc3ccco3)c(=O)[nH]c2c1 [BCN057, 3-(3((furan-2-ylmethyl)ammo)-6-methylimidazo[1,2-a]pyridine-2-yl)-6-methoxyquinolin-2(1H)-one]",duration of survival post AIR,"[1]; 14-15 Gy AIR, BCN057 at 24 hrs post AIR",> 30 days and > 60 days
same,survival,[1]; 14Gy AIR,80%
same,survival,[1]; 15Gy AIR,60%
same,symptoms / clinical conditions in surviving treated mice,"[1]; after AIR/PBI, observed up to day 30-60 post exposure",without showing any symptoms of RIGS; also recorded: did not develop any clinical conditions; also recorded: without any symptom of gastroenteritis or any other health complications
same,toxicity to normal mice,[1]; normal (un-irradiated) mice,do not confer any toxicity
same,organoid growth / ratio of budding crypt to total crypt,"[2]; 8 Gy, BCN057 10 uM at 1 hr after irradiation",restored the number of budding crypts to un-irradiated levels; also recorded: improved the organoid growth
same,Lgr5+ve ISCs in organoids,"[2]; 8Gy, BCN057 treated vs irradiated control",recused Lgr5+ve ISCs; also recorded: increases the presence of Lgr5+ve cells
